Measurements taken from PMC3798605, “Independent Pathways Can Transduce the Life-Cycle Differentiation Signal in Trypanosoma brucei” (PLoS Pathogens, 2013).

Molecular target: T1, TbPTP1/TbPIP39 (Trypanosoma brucei, UniProt Q38AT7+Q38EW0)
T1 construct: gene Tb10.70.0070; His-TbPTP1 plus GST-TbPIP39 (recoded synthetic gene, pGEX4T1); biophysical preparations described in supplement
T1 sequence (Q38AT7 1-306): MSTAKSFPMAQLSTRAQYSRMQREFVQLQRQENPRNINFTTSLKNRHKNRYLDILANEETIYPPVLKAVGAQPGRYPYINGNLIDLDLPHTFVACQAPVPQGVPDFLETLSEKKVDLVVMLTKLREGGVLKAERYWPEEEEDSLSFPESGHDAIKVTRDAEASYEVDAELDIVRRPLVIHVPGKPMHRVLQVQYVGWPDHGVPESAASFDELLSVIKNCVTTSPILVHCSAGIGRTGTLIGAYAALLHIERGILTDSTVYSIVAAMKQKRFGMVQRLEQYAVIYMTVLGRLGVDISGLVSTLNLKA
T1 sequence (Q38EW0 1-343): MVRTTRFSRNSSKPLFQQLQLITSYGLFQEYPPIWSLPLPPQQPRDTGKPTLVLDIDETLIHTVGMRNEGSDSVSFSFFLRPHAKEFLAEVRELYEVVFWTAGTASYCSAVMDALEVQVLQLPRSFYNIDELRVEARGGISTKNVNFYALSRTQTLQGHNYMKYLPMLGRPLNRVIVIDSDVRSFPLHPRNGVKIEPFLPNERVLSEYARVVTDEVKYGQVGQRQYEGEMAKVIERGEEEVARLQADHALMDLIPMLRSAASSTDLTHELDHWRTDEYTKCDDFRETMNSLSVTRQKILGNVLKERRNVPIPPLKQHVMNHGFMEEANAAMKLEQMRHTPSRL
Experiment: SPR, ligand-dependent TbPTP1-TbPIP39 interaction
Format: binding
Conditions: isocitrate-promoted complex formation, indirect evidence; TbPTP1 immobilised

For `O=C(O)C[C@H](C(=O)O)[C@@H](O)C(=O)O` [isocitrate], the “SPR, ligand-dependent TbPTP1-TbPIP39 interaction” value was “isocitrate, which does not stimulate differentiation, also promoted the interaction between TbPTP1 and wild type”.
